Experimental data: paper PMC10099810, “Rational Design and Synthesis of D‐galactosyl Lysophospholipids as Selective Substrates and non‐ATP‐competitive Inhibitors of Phosphatidylinositol Phosphate Kinases” (Chemistry (Weinheim an Der Bergstrasse, Germany), 2022)

Legend:
[1] = target: T1, 5′ AMP-activated protein kinase α1 (AMPKα1) (Homo sapiens, UniProt Q13131); assay: KinaseProfiler activity screen, […] inhibition at […]; type: biochemical
T1 construct: gene PRKAA1

hPIKfyve (human PIKfyve) = target: T2, hPIKfyve (human PIKfyve) (Homo sapiens, UniProt Q9Y2I7); assay: […]-ATP lipid kinase assay with TLC, diC16-PI3P substrate; type: biochemical
T2 construct: full length human PIKfyve with an N-terminal FLAG tag
T2 sequence (Q9Y2I7 2-2098): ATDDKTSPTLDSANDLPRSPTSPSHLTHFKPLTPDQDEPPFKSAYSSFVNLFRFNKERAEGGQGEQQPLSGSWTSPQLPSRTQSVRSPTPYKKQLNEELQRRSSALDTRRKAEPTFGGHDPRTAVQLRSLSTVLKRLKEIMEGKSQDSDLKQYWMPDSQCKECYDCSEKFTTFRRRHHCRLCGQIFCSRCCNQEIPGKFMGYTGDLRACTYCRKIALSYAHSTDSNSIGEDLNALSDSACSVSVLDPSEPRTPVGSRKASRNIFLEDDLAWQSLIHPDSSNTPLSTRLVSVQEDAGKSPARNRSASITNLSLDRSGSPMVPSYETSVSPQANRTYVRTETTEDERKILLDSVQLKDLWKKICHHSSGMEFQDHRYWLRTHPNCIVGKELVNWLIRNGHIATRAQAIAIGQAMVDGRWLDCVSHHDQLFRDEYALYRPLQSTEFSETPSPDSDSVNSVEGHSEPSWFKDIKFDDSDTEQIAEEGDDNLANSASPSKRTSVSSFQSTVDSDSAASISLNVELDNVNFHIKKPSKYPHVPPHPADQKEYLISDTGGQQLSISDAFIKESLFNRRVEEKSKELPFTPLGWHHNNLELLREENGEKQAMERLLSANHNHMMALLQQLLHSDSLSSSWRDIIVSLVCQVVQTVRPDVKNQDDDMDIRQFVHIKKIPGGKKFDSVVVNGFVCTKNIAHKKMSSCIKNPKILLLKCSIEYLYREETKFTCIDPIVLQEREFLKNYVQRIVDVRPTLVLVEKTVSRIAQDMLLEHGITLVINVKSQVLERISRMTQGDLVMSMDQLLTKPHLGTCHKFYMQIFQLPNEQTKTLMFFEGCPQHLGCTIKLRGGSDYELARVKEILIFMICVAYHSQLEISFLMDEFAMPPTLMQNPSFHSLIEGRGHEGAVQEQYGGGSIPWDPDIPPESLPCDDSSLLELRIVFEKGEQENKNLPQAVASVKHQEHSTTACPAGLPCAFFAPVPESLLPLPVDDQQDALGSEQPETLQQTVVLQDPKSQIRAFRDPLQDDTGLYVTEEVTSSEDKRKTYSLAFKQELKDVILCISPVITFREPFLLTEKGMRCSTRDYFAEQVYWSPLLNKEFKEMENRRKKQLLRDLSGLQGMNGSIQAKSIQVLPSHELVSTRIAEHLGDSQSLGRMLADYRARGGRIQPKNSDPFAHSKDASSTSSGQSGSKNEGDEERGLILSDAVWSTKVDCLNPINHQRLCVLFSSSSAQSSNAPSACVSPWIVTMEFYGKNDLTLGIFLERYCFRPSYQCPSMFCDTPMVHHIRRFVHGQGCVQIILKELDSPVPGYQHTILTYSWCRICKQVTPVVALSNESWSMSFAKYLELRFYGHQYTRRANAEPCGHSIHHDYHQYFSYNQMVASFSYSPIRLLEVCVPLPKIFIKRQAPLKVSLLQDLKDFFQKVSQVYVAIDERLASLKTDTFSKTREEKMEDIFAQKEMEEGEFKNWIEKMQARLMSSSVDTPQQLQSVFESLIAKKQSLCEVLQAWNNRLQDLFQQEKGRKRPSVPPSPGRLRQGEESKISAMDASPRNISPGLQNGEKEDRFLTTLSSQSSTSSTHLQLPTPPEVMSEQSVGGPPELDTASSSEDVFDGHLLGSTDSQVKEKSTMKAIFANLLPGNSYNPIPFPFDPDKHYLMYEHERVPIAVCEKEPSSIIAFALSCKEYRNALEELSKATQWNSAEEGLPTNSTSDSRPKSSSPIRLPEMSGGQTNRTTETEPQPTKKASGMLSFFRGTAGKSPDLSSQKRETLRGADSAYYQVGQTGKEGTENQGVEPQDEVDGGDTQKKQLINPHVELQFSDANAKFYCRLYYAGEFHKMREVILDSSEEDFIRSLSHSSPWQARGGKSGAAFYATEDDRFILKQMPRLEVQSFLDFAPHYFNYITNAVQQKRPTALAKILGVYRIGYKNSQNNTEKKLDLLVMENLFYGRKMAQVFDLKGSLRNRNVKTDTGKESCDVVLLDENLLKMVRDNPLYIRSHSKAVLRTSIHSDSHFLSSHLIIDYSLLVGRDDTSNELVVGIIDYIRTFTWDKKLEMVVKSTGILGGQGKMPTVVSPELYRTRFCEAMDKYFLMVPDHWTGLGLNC

[2] = target: T3, zPIP5Kα (zebrafish PIP5Kα) (Danio rerio, UniProt Q503I3); assay: […]-ATP lipid kinase assay with TLC, diC16-PI4P substrate; ATP and PI4P competition; type: biochemical
T3 construct: gene pip5k1aa; zebrafish PIP5Kα with a C-terminal His-tag

purified protein = substrate: CCCCCCCCCCCCCCCC(=O)NCCOP(=O)(O)OC[C@H]1OC(O)[C@H](OP(=O)(O)O)[C@@H](O)[C@H]1O; assay: purified protein; type: biochemical, Danio rerio; details: Mg2+, phosphorylated at the anomeric OH

T1 sequence (Q13131 whole entry): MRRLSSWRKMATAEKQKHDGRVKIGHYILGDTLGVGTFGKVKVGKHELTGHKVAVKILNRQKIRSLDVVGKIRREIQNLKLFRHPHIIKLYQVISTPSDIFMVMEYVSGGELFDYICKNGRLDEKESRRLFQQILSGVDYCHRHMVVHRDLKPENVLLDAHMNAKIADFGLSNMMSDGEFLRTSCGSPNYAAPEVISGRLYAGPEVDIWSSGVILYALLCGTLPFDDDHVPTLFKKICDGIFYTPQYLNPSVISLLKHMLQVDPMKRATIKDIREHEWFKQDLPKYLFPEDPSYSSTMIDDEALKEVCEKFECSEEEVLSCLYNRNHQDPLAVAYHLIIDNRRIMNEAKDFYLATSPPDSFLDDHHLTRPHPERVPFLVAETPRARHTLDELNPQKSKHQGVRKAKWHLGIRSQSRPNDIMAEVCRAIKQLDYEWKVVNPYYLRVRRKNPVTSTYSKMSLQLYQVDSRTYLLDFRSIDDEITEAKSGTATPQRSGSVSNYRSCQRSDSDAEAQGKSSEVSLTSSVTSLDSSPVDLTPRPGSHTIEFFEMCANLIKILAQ
T1 sequence (Q9Y478 2-270 partner): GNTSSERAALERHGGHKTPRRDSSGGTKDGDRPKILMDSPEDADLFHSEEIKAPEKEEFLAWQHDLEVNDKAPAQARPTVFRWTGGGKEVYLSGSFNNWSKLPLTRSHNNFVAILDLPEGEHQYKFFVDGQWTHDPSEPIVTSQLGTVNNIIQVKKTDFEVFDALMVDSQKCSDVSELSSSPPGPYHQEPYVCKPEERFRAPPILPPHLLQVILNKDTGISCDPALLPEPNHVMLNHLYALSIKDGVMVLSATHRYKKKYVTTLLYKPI
T1 sequence (P54619 whole entry partner): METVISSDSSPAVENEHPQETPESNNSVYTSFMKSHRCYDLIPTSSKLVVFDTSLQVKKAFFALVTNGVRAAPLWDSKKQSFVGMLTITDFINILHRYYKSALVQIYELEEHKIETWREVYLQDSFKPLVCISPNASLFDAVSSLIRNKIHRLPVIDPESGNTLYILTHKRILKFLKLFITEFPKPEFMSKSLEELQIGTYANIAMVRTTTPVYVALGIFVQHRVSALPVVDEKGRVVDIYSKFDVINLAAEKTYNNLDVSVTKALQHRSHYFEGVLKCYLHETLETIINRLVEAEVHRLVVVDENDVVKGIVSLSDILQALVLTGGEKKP

CCCCCCCCCCCCCCCC(=O)NCCOP(=O)(O)OC[C@H]1O[C@@H](OC)[C@H](OP(=O)(O)O)[C@H]2OC(C)(C)O[C@H]21 [compound 6]
inhibition at 20 µM [1]: 50%
IC50 (hPIKfyve (human PIKfyve)): 6.2 µM
IC50 [2]: ~15 µM

B1: zPIP5Kα (zebrafish PIP5Kα) (Danio rerio) (protein)
chain: MAAPAVVSTDGADSSTPGNRKMASSEGLSTLGSSQTNKKTLGHRGIDPTGETTYKKTTSSALKGAIQLGITHSVGSLSQKPERDVLMQDFEVVESIFFPSQGSSSTPGHHHGDFKFKTYAPIAFRYFREMFGIRPDDYLYSLCNEPLIELSNPGASGSLFYVSSDDEFIIKTVQHKEAEFLQTLLPGYFMNLNQNMRTLLPKFYGLYCVQADGKNIRIVVMNNLLPRAVPMHLKFDLKGSTYKRRASPKERSKGVPTYKDLDFMQDMPEGILLENDHYTALSRTMQRDCRVLQSFKIMDYSLLVGIHILHRAGEEASTAVPDTQKKGQGQKPLYCTAIESIQGESKSKTSPQPYESMGGIPAFNSKGERLLVFIGIIDILQSYRLVKKLEHSWKALLHDGDTVSVHRPSFYADRFQKFMCSTVFRKSQLKTSPSKRSRLGPVSAGKKSNIAVSGQSHQQSLPVAAELTQSQLWSSEDPQGDSGMQTARPDLLPQQVAEDDITSSSADTTLSATSLVNSRLSTNTPVLSRSSVAGHSSEESLDMDVISLSEIVPQTSTSE
notes: zebrafish PIP5Kα with a C-terminal His-tag
Km (purified protein): 10 ± 1.3 µM
